Source: patent US20170050957A1, “4-AMINO-6-(HETEROCYCLIC)PICOLINATES AND 6-AMINO-2-(HETEROCYCLIC)PYRIMIDINE-4-CARBOXYLATES AND THEIR USE AS HERBICIDES” (Dow AgroSciences LLC, priority 2013, published 2017)
Read-outs that look alike come from different tables or passages of the source.

Columns and labels:
[1] = test system: Key Grass and Sedge Weeds as well as Grass Crops; experiment: Post-emergent Test II herbicidal activity (Table 16); format: in vivo; details: post-emergence, 336 h, 14 days after application; for pest or weed control at 35 g/ha: 35 g ai/ha; for pest or weed control at 70 g/ha: 70 g ai/ha; for pest or weed control at 140 g/ha: 140 g ai/ha
Method in brief: (§1)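 Visual injury rating (0 = none, 100% = complete kill) made 14 d after treatment, relative to untreated plants. Compounds in an acetone/DMSO/aqueous crop-oil/surfactant spray, at top rate and serial 1/2×-1/16× rates, were applied at 187 L/ha overhead to first-second true leaf plants raised 7-21 d in greenhouse.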

[2] = test system: Key Broadleaf Weed and Crop Species; experiment: Post-emergent Test II herbicidal activity (Table 15); format: in vivo; details: post-emergence, 336 h, 14 d; for pest or weed control at 35 g/ha: 35 g ai/ha; for pest or weed control at 70 g/ha: 70 g ai/ha; for pest or weed control at 140 g/ha: 140 g ai/ha
Method in brief: as §1

[3] = Cyperus esculentus, yellow nutsedge (Cyperus esculentus), read-out: Visual Growth Reduction (%) 14 Days After Application CYPES
[4] = Echinochloa crus-galli, barnyardgrass (Echinochloa crus-galli), read-out: Visual Growth Reduction (%) 14 Days After Application ECHCG
[5] = Oryza sativa, rice (Oryza sativa), read-out: Visual Growth Reduction (%) 14 Days After Application ORYSA
[6] = Setaria faberi, giant foxtail (Setaria faberi), read-out: Visual Growth Reduction (%) 14 Days After Application SETFA
[7] = Triticum aestivum, wheat, spring (Triticum aestivum), read-out: Visual Growth Reduction (%) 14 Days After Application TRZAS
[8] = Zea mays, maize, corn (Zea mays), read-out: Visual Growth Reduction (%) 14 Days After Application ZEAMX
[9] = Abutilon theophrasti, velvetleaf (Abutilon theophrasti), read-out: Visual Growth Reduction (%) 14 Days After Application, ABUTH
[10] = Amaranthus retroflexus, redroot pigweed (Amaranthus retroflexus), read-out: Visual Growth Reduction (%) 14 Days After Application, AMARE
[11] = Brassica napus, oilseed rape, canola (Brassica napus), read-out: Visual Growth Reduction (%) 14 Days After Application, BRSNN
[12] = Chenopodium album, lambsquarters (Chenopodium album), read-out: Visual Growth Reduction (%) 14 Days After Application, CHEAL
[13] = Euphorbia heterophylla, wild poinsettia (Euphorbia heterophylla), read-out: Visual Growth Reduction (%) 14 Days After Application, EPHHL
[14] = Helianthus annuus, sunflower (Helianthus annuus), read-out: Visual Growth Reduction (%) 14 Days After Application, HELAN

COc1c(N)nc(-c2ccc3ccsc3c2)nc1C(=O)O [Compound 3.21]
pest or weed control at 35 g/ha [1, 3]: 0 to 29% | pest or weed control at 70 g/ha [1, 3]: 0 to 29% | pest or weed control at 140 g/ha [1, 3]: 0 to 29% | pest or weed control at 35 g/ha [1, 4]: 75 to 84% | pest or weed control at 70 g/ha [1, 4]: 85 to 94% | pest or weed control at 140 g/ha [1, 4]: 85 to 94% | pest or weed control at 35 g/ha [1, 5]: 0 to 29% | pest or weed control at 70 g/ha [1, 5]: 30 to 44% | pest or weed control at 140 g/ha [1, 5]: 30 to 44% | pest or weed control at 35 g/ha [1, 6]: 0 to 29% | pest or weed control at 70 g/ha [1, 6]: 30 to 44% | pest or weed control at 140 g/ha [1, 6]: 60 to 74% | pest or weed control at 35 g/ha [1, 7]: 30 to 44% | pest or weed control at 70 g/ha [1, 7]: 30 to 44% | pest or weed control at 140 g/ha [1, 7]: 45 to 59% | pest or weed control at 35 g/ha [1, 8]: 30 to 44% | pest or weed control at 70 g/ha [1, 8]: 60 to 74% | pest or weed control at 140 g/ha [1, 8]: 75 to 84% | pest or weed control at 35 g/ha [2, 9]: 0 to 29% | pest or weed control at 70 g/ha [2, 9]: 30 to 44% | pest or weed control at 140 g/ha [2, 9]: 45 to 59% | pest or weed control at 35 g/ha [2, 10]: 95 to 100% | pest or weed control at 70 g/ha [2, 10]: 95 to 100% | pest or weed control at 140 g/ha [2, 10]: 95 to 100% | pest or weed control at 35 g/ha [2, 11]: 75 to 84% | pest or weed control at 70 g/ha [2, 11]: 85 to 94% | pest or weed control at 140 g/ha [2, 11]: 95 to 100% | pest or weed control at 35 g/ha [2, 12]: 85 to 94% | pest or weed control at 70 g/ha [2, 12]: 85 to 94% | pest or weed control at 140 g/ha [2, 12]: 95 to 100% | pest or weed control at 35 g/ha [2, 13]: 75 to 84% | pest or weed control at 70 g/ha [2, 13]: 85 to 94% | pest or weed control at 140 g/ha [2, 13]: 95 to 100% | pest or weed control at 35 g/ha [2, 14]: 60 to 74% | pest or weed control at 70 g/ha [2, 14]: 60 to 74% | pest or weed control at 140 g/ha [2, 14]: 75 to 84% | melting point: 134 to 136 °C
